Experiments:
[1] = test system: adults with major depressive disorder (MDD) who are at imminent risk of suicide; test: MADRS Total, Phase 2 Part 1 open-label; format: in vivo, human; conditions: for MADRS mean score: baseline 39.4; for MADRS remission rate (a score of less than 12) / MADRS response rate: summary through Day 29/30
From the text: The Montgomery-Åsberg Depression Rating Scale (MADRS) is a diagnostic questionnaire that can be used to measure the severity of a depressive episode in a subject. In some embodiments, the MADRS can be used to measure suicidal ideation. For example, the MADRS includes 10 items directed to the following: 1) apparent sadness (e.g., representing despondency, gloom and despair that is more than just ordinary transient low spirits that is reflected in speech, facial expression, and posture); 2) reported sadness (e.g., representing reports of depressed mood, regardless of whether it is reflected in appearance or not and can include low spirits, despondency or the feeling of being beyond help and without hope); 3) inner tension (e.g., representing feelings of ill-defined discomfort, edginess, inner turmoil, mental tension mounting to either panic, dread or anguish); 4) reduced sleep (e.g., representing the experience of reduced duration or depth of sleep compared to the subject's own normal pattern when well); 5) reduced appetite (e.g., representing the feeling of a loss of appetite compared with when-well); 6) concentration difficulties (e.g., representing difficulties in collecting one's thoughts mounting to an incapacitating lack of concentration); 7) lassitude (e.g., representing difficulty in getting started or slowness in initiating and performing everyday activities); 8) inability to feel (e.g., representing the subjective experience of reduced interest in the surroundings, or activities that normally give pleasure, and the ability to react with adequate emotion to circumstances or people is reduced); 9) pessimistic thoughts (e.g., representing thoughts of guilt, inferiority, self-reproach, sinfulness, remorse and ruin); and 10) suicidal thoughts (e.g., representing the feeling that life is not worth living, that a natural death would be welcome, suicidal thoughts, and preparations for suicide). Each item is rated from 0 units to 6 units, with 0 reflecting that the subject is not at all as described by the item and 6 reflecting that the subject is extremely like what is described by the item. […] As another example, for suicidal thoughts, a score of 0 units can indicate that the subject enjoys life or takes it as it comes; a score of 2 units can indicate that the subject is weary of life and may have fleeting suicidal thoughts; a score of 4 units can indicate that the subject feels he or she would probably be better off dead (e.g., suicidal thoughts are common, and suicide is considered as a possible solution, but without specific plans or intention); and a score of 6 units can indicate that the subject has explicit plans for suicide when there is an opportunity (e.g., the subject has made active preparations for suicide). Thus, the total score, after summation of each score for each item, is on a scale of 0 units to 60 units.
The study schedule is identical for Parts 1 and 2. After admission to the emergency room or hospital, each subject will participate in a 1 to 2 day screening phase, a 16-day treatment phase including SOC during which study drug will be administered 2 times per week, for a total of 5 doses across the 16-day treatment period and a 2-week safety follow-up phase for a total of up to 5 weeks of study participation. Subjects will be treated as inpatients for approximately 7 days (including screening), and assuming the subject meets readiness for discharge criteria, will be discharged on Day 6 to continue the trial as outpatients, provided it is clinically appropriate to do so. Subjects will return to the clinic to receive study drug and to undergo study assessments 2 times per week until Day 16. Subjects will be evaluated for efficacy using multiple psychometric scales and for safety using clinical laboratory assessments, electrocardiograms (ECGs), vital signs, and physical examinations. […]

[2] = test system: adults with major depressive disorder (MDD) who are at imminent risk of suicide; test: S-STS CMCM Risk of Suicide at Within the Next 7 Days; format: in vivo, human; conditions: 90 mg IN+SOC
From the text: The S-STS CMCM (version 01/01/19) is a clinician-rated outcome measure which assesses SI/B on a standard 22-item scale, as well as multiple patient and clinician-rated items. The first 16 items are rated on a Likert-type scale ranging from “not at all” (0 units) to “extremely” (4 units), where select scoring (i.e., 4 specific items are scored based on the highest score on 2 of those items) yields a total score ranging from 0 units to 52 units. The final 6 items are used only when the patient misses a visit and is unable to complete the scale; if that missed visit is due to attempted or completed suicide, the possible maximum score is 100. The CMCM also yields 5 different single-item global assessments: 1) subject-rated likelihood of a suicide attempt; 2) subject-rated treatment needed; 3) clinician global severity of suicidal impulses, thoughts, and behaviors; 4) clinician judgment of suicide risk at this time and level of management needed for suicidality; and 5) clinician judgment of subject's likelihood of making a suicide attempt or of dying by suicide in the next 7 days.
The secondary endpoints are the change from baseline at 24 hours, as well as at Day 16, in the following: • (1) S-STS total score • (2) MADRS Total at Day 16 (only) • (3) Clinical Global Impression (CGI) of Severity for SI/B (CGIS-SI/B) and Change in SI/B (CGIC-SI/B) • (4) Patient Global Impression (PGI) of Severity for SI/B (PGIS-SI/B) and Change in SI/B (PGIC-SI/B • (5) S-STS Clinician-Rated Global Severity of Suicidal Impulses, Thoughts, and Behaviors • (6) S-STS Clinician judgment of subject's risk of a suicide attempt or death by suicide at this time • (7) S-STS Clinician judgment of subject's likelihood (risk) of making a suicide attempt or of dying by suicide in the next 7 days • (8) S-STS Subject-rated global severity of suicidal impulses, thoughts, and behavior • (9) S-STS Subject-rated treatment needed score • (10) MADRS item 10 response rate (response ≤3 units) • (11) MADRS Total response (total score ≥50% reduction from baseline) • (12) MADRS Total remission (total score ≤12 units)

In the case of `CNC1(c2ccccc2Cl)CCCCC1=O` (racemic) [intranasal racemic ketamine, 1:1 mixture of the two enantiomers of ketamine: (R)-2-(2-chlorophenyl)-2-(methylamino)cyclohexanone and (S)-2-(2-chlorophenyl)-2-(methylamino)cyclohexanone], the “MADRS Total” value ([1]; 90 mg IN+SOC, Subject 1, 24 hours post-administration, baseline 35 units) is reported as 8 units, the “MADRS Total” value ([1]; 90 mg IN+SOC, Subject 2, 24 hours post-administration, baseline 38 units) is reported as 15 units and the “MADRS Total” value ([1]; 90 mg IN+SOC, Subject 2, Day 8, after second dose on Day 4) is reported as 16 units. The “MADRS Total reduction” value ([1]; 90 mg IN+SOC, both subjects, 24 hours) was greater than 50%, the “MADRS mean (SD) change from baseline” value ([1]; 17 subjects enrolled, 24 hours post-dose) was −24.9 (8.34) and the “MADRS mean (SD) change from baseline” value ([1]; 17 subjects enrolled, Day 16) was −31.6 (7.31). The “subjects who experienced MADRS remission” value ([1]; 24 hours post-dose) was 35.5%, the “subjects who experienced MADRS response” value ([1]; 24 hours post-dose) was 76.5% and the MADRS mean score ([1]; Day 1) was 14.5. The “subjects who experienced MADRS remission” value ([1]; Day 16) was 78.6%, the “subjects who experienced MADRS response” value ([1]; Day 16) was 92.9% and the MADRS mean score ([1]; Day 16) was 7.4. The MADRS mean score ([1]; Day 29) was 6.3, the “MADRS mean (SD) change from baseline” value ([1]; final follow-up on Day 29/30) was −32.1 (7.4) and the “mean MADRS score” value ([1]; final follow-up on Day 29/30) was 6.3 (6.60). For the same compound, the “subjects who experienced MADRS remission” value ([1]; study end (Day 29/30)) was 76.9%, the “subjects who experienced MADRS response” value ([1]; study end (Day 29/30)) was 100% and the “MADRS remission rate (a score of less than 12)” value ([1]; Day 1) was 23.5%. For the same compound, the MADRS response rate ([1]; Day 1) was 76.5%, the “MADRS remission rate (a score of less than 12)” value ([1]; Day 16) was 78.6% and the MADRS response rate ([1]; Day 16) was 92.9%. The MADRS response rate ([1]; Day 29, 14 days after the last dose on Day 15) was 100%, the “S-STS CMCM Risk of Suicide at Within the Next 7 Days score” value (shortened to “S-STS CMCM Risk of Suicide”) ([2]; Subject 1, 24 hours post-administration, from 5 units, range 1-10) was 2 units and the “S-STS CMCM Risk of Suicide” value ([2]; Subject 2, 24 hours post-administration, baseline 7 units) was 1 unit. For the same compound, the “S-STS CMCM Risk of Suicide” value ([2]; the scores (Subjects 1 and 2), Day 4) was 1 unit and the “S-STS CMCM Risk of Suicide” value ([2]; the scores (Subjects 1 and 2), Day 8) was 0 units.

Reference: patent US20240261236A1, “METHODS OF USING NMDA RECEPTOR ANTAGONISTS” (Seelos Therapeutics, Inc., priority 2021, published 2024)
